Measurements as given in patent US7071168B2, “Anti-cancer compounds and methods related thereto” (The Regents of the University of Colorado, priority 1998, dated 2006).

What was measured:
[1] = test system: SCLC strain SHP-77; test: Colorimetric tetrazolium (MTT) assay for cell survival, SCLC strain SHP-77; format: cell-based, human; details: for ED50 for cytotoxic activity, SCLC SHP-77: Table 5, included for comparison
Procedure, shortened: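 MTT assay: cells seeded overnight, treated in triplicate across a concentration range for 4 days at 37 °C, 5% CO2. On day 5, MTT was added for 4 h; formazan was dissolved in acidified isopropanol and absorbance read.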

[2] = test system: bradykinin response of isolated guinea pig ileum; test: Anti-bradykinin activity on isolated guinea pig ileum; details: for GPI: pA2 for bradykinin antagonist activity on isolated guinea pig ileum: higher numbers indicate higher potency
Procedure, shortened: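 Terminal ileum segments (25 mm) from overnight-fasted male Hartley guinea pigs, in Krebs' solution gassed with 95% O2/5% CO2 under 1 g tension, equilibrated 1 h. Bradykinin concentration-effect curves constructed without and with test compounds.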

[3] = test system: SCLC strain SHP-77; test: Inhibition of tumor growth in vivo in nude mice, SCLC strain SHP-77; details: for inhibition of growth in vivo of SCLC strain SHP-77: figure legends, nude mice, i.p. daily; for inhibition of growth of the SCLC line SHP-77: dose of 5 mg/kg/day
Protocol: Representative peptide and non-peptide compounds having high in vitro cytotoxic activity were tested against implanted tumors in vivo. Athymic nude mice were implanted subcutaneously with either single cell suspensions (2 million SCLC cells or 1 million NSCLC cells) or with small fragments (3×3 mm) of tumors minced from previously grown nude mouse heterotransplants. On the seventh day after tumor implantation groups of 5 mice bearing implants were injected intraperitoneally daily with the compounds being tested at 1, 5, or 10 mg/kg/day; control animals were injected with an equal volume of isotonic saline. Tumor size was measured with a caliper three times per week. Tumor volume was calculated by the formula: Volume (cc)=π×(length)×(width)^2/6

[4] = test system: DU14; test: Cytotoxicity in vitro (MTT), prostate cancer cell line DU14; format: cell-based, human
Protocol: (§1) In general, Anti-bradykinin activity was determined by the classical guinea pig ileum assay and on Chinese hamster ovary (CHO) cells expressing cloned human bradykinin B2 receptors. Anti-tumor activity was determined on cultured human cancer cell lines using the standard tetrazolium (MTT) assay.
(§2) Cell growth and survival were measured by a rapid colorimetric assay based on the tetrazolium salt MTT (3-(4,5-dimethylthiazol-2-yl)-2,5-diphenyl tetrazolium bromide) (Mosmann, J Immunol. Methods 65: 55–63, 1983, with minor modifications). Briefly, 1,000 normal lung fibroblasts or normal epithelial BEAS-2B cells, 1,000 or 5,000 viable non-SCLC cells or 10,000 viable SCLC cells were plated in 100 μL of growth medium in 96-well flat-bottomed microtiter plates. Cells were incubated overnight to allow recovery. Compounds to be tested were added to the cells in triplicate in a range of concentrations and the cells were incubated at 37° C., 5% CO2, with 100% humidity. Control cells were treated in the same way without antagonists. […] Plates were incubated for 4 days, allowing sufficient time for cell replication and compound-induced cell death to occur. On day 5, 25 μL of a 2 mg/mL solution of MTT (Sigma) dissolved in RMPI-1640was added to each well. The plate was incubated for 4 h at 37° C. The supernate was removed and the blue formazan complex was dissolved by adding 100 μL of 0.02 N HCl in 75% isopropanol to all wells. Absorbance was immediately determined using a scanning multiwell plate reader. B9870 caused 50% cell death at a concentration of 0.15 μM under these conditions.

[5] = test system: TSU; test: Cytotoxicity in vitro (MTT), prostate cancer cell line TSU; format: cell-based, human
Protocol: as §1, §2

[6] = test system: LNCa; test: Cytotoxicity in vitro (MTT), prostate cancer cell line LNCa; format: cell-based, human
Protocol: as §1, §2

[7] = test system: PC-3; test: Cytotoxicity in vitro (MTT), prostate cancer cell line PC-3; format: cell-based, human
Protocol: as §1, §2

[8] = test system: PPC1; test: Cytotoxicity in vitro (MTT), prostate cancer cell line PPC1; format: cell-based, human
Protocol: as §1, §2

[9] = target: T1, cloned human bradykinin B2 receptors (Homo sapiens, UniProt P30411); test: Anti-bradykinin activity on cloned human B2 receptors (CHO cells, Cytosensor microphysiometer); format: cell-based; details: for HUMAN: pA2 for bradykinin antagonist potency on cloned human B2 receptors: Table 1, higher numbers indicate higher potency
T1 sequence (P30411 1-391): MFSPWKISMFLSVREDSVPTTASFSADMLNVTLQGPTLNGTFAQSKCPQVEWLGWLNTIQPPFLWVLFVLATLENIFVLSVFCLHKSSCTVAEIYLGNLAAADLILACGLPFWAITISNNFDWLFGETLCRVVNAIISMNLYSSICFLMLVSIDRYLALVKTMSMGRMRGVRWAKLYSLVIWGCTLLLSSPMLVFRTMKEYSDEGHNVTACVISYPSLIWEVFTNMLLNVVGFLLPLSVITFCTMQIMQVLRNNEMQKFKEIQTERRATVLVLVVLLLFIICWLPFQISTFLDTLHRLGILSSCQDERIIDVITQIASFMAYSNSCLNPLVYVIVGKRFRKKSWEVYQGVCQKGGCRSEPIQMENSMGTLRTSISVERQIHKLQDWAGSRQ
Protocol: as §1
Chinese hamster ovary cells containing cloned and expressed human bradykinin B2 receptors were grown in cell cups of the Cytosensor microphysiometer in Ham's F-12 medium supplemented with sodium pyruvate and 10% FBS (Gibco 11765-054). For assay the cells were transferred to Ham's F-12 without bicarbonate or serum (Gibco 21700-075) and placed in the Cytosensor. Concentration-response curves were constructed to bradykinin in the presence or absence of new compounds.

[10] = isolated guinea pig ileum, pD2 of bradykinin is 7.4

CC1(C)CC(NC(=O)[C@H](Cc2ccc(OCc3c(Cl)cccc3Cl)cc2)NC(=O)/C=C/c2c(F)c(F)c(F)c(F)c2F)CC(C)(C)N1 [M570, F5c-OC2Y-Atmp]
MTT: ED50 for killing of SCLC strain SHP-77 in vitro ([1]; SCLC strain SHP-77 in vitro): 1.8 µM | ED50 for cytotoxic activity, SCLC SHP-77 [1]: 1.8 µM | GPI: pA2 for bradykinin antagonist activity on isolated guinea pig ileum [2, 10]: 5.6 | inhibition of growth in vivo of SCLC strain SHP-77 [3]: inhibition of growth | ED50 for cytotoxic activity, DU14 [4]: 1.2 µM | ED50 for cytotoxic activity, TSU [5]: 2.8 µM | ED50 for cytotoxic activity, LNCa [6]: 3.0 µM | ED50 for cytotoxic activity, PC-3 [7]: 1.6 µM | ED50 for cytotoxic activity, PPC1 [8]: 3.0 µM

Atmp-Igl-Pac-α-Sbl-Lys-B9430 [M590]
MTT: ED50 for killing of SCLC strain SHP-77 in vitro ([1]; Table 1, SHP-77, MTT, 4 days): 4.5 µM | ED50 for cytotoxic activity, SCLC SHP-77 [1]: 4.5 µM | GPI: pA2 for bradykinin antagonist activity on isolated guinea pig ileum ([2]; Table 1): 7.5 | HUMAN: pA2 for bradykinin antagonist potency on cloned human B2 receptors [9]: Inact | ED50 for cytotoxic activity, DU14 [4]: 0.01 µM | ED50 for cytotoxic activity, TSU [5]: 7.0 µM | ED50 for cytotoxic activity, LNCa [6]: 7.0 µM | ED50 for cytotoxic activity, PC-3 [7]: 6.3 µM | ED50 for cytotoxic activity, PPC1 [8]: 12 µM

DArg-Arg-Pro-Hyp-Gly-Igl-Ser-DIgl-Oic-Arg [B9430, reference compound]
MTT: ED50 for killing of SCLC strain SHP-77 in vitro ([1]; Table 1, SHP-77, MTT, 4 days): 120 µM | GPI: pA2 for bradykinin antagonist activity on isolated guinea pig ileum ([2]; Table 1): 8.2 | pA2 (antagonist) on guinea pig ileum ([2]; text of Example XVII): 7.9 | pA2 (antagonist) on cloned human B2 receptors ([9]; text of Example XVIII): 10.5 | inhibition of growth in vivo of SCLC strain SHP-77 [3]: inhibition of growth

DDD-(DArg-F5F-Arg)2 [M822]
MTT: ED50 for killing of SCLC strain SHP-77 in vitro ([1]; Table 1, SHP-77, MTT, 4 days): 25 µM | GPI: pA2 for bradykinin antagonist activity on isolated guinea pig ileum ([2]; Table 1): Mixed | inhibition of growth in vivo of SCLC strain SHP-77 [3]: inhibition of growth

DDD-(DArg-Igl-Arg-Matp)2 [M638]
MTT: ED50 for killing of SCLC strain SHP-77 in vitro ([1]; SCLC strain SHP-77 in vitro): 0.6 µM | GPI: pA2 for bradykinin antagonist activity on isolated guinea pig ileum [2, 10]: Inact | inhibition of growth in vivo of SCLC strain SHP-77 [3]: inhibition of growth

DDD-(Lys-DArg-Arg-Pro-Hyp-Gly-Igl-Ser-DIgl-Oic-Arg)2 [B10054]
MTT: ED50 for killing of SCLC strain SHP-77 in vitro ([1]; Table 1, SHP-77, MTT, 4 days): 0.3 µM | GPI: pA2 for bradykinin antagonist activity on isolated guinea pig ileum ([2]; Table 1): 7.1 | inhibition of growth of the SCLC line SHP-77 [3]: marked inhibition of growth | inhibition of growth in vivo of SCLC strain SHP-77 [3]: inhibition of growth

F5c-2Nal-Arg-NH2 [M450]
MTT: ED50 for killing of SCLC strain SHP-77 in vitro ([1]; Table 1, SHP-77, MTT, 4 days): 26 µM | GPI: pA2 for bradykinin antagonist activity on isolated guinea pig ileum ([2]; Table 1): 4.9 | HUMAN: pA2 for bradykinin antagonist potency on cloned human B2 receptors [9]: Inact

F5c-OBS-Arg [M520]
MTT: ED50 for killing of SCLC strain SHP-77 in vitro ([1]; Table 1, SHP-77, MTT, 4 days): Inact | GPI: pA2 for bradykinin antagonist activity on isolated guinea pig ileum ([2]; Table 1): 6.1 | HUMAN: pA2 for bradykinin antagonist potency on cloned human B2 receptors [9]: 7

F5c-OBT-Arg [M550]
MTT: ED50 for killing of SCLC strain SHP-77 in vitro ([1]; Table 1, SHP-77, MTT, 4 days): 80 µM | GPI: pA2 for bradykinin antagonist activity on isolated guinea pig ileum ([2]; Table 1): Inact | HUMAN: pA2 for bradykinin antagonist potency on cloned human B2 receptors [9]: Ag

F5c-OC2Y-Arg [M512]
MTT: ED50 for killing of SCLC strain SHP-77 in vitro ([1]; Table 1, SHP-77, MTT, 4 days): 70 µM | GPI: pA2 for bradykinin antagonist activity on isolated guinea pig ileum ([2]; Table 1): 5.7 | HUMAN: pA2 for bradykinin antagonist potency on cloned human B2 receptors [9]: 11

F5c-hPhe-Arg [M420]
MTT: ED50 for killing of SCLC strain SHP-77 in vitro ([1]; Table 1, SHP-77, MTT, 4 days): 60 µM | GPI: pA2 for bradykinin antagonist activity on isolated guinea pig ileum ([2]; Table 1): 7.0 | HUMAN: pA2 for bradykinin antagonist potency on cloned human B2 receptors [9]: 10.9

SUIM-(DArg-Arg-Pro-Hyp-Gly-Igl-Ser-DIgl-Oic-Arg) [B9870-2, reference compound]
EC50 ([1]; MTT assay, text of Example XIX, read-out: concentration causing 50% cell death): 0.15 µM | MTT: ED50 for killing of SCLC strain SHP-77 in vitro ([1]; Table 1, SHP-77, MTT, 4 days): 0.15 µM | ED50 for cytotoxic activity, SCLC SHP-77 [1]: 0.15 µM | GPI: pA2 for bradykinin antagonist activity on isolated guinea pig ileum ([2]; Table 1): 8.4 | inhibition of growth of the SCLC line SHP-77 [3]: marked inhibition of growth | ED50 for cytotoxic activity, DU14 [4]: 0.08 µM | ED50 for cytotoxic activity, TSU [5]: 6.5 µM | ED50 for cytotoxic activity, LNCa [6]: 3.7 µM | ED50 for cytotoxic activity, PC-3 [7]: 3.2 µM | ED50 for cytotoxic activity, PPC1 [8]: 4.3 µM

α-DDD-(Lys-B9430-OMe)2 [M600]
MTT: ED50 for killing of SCLC strain SHP-77 in vitro ([1]; Table 1, SHP-77, MTT, 4 days): 1.2 µM | GPI: pA2 for bradykinin antagonist activity on isolated guinea pig ileum ([2]; Table 1): 6.4 | HUMAN: pA2 for bradykinin antagonist potency on cloned human B2 receptors [9]: Ag
